According to US20070010429A1, “Phospholipid formulations and uses thereof in lung disease detection and treatment” (The Hospital For Sick Children, priority 2005, published 2007):
Like-named read-outs stand apart in the source and are kept apart here.

Columns and labels:
neonatal rats [1] = settings: treated rats; day 10 control rats 9.0±0.4 microns
Description: BALF samples, containing 50 nM of PC, were extracted and lipids were dried under nitrogen. Lipid samples were then reconstituted in 1 ml of saline at 37° C. followed by bath sonication. Following one freeze-thaw cycle the vesicle size was determined by dynamic light scattering (21) using a Malvern Mastersizer X (Malvern Instruments Ltd., Worcestershire, United Kingdom).
To even further characterize this relationship, light scattering analysis was performed on liposomes formed from total lipids extracted from BALF.

newborn Wistar rats = settings: high dose, short-term dexamethasone, age of 14 days; cited from earlier work
[2] = freeze fracture analysis; cited from earlier work
neonatal rats [3] = tested on: neonatal rats
Description: Timed-pregnant female Wistar rats and C57/B16 mice were obtained from Charles River (St. Constant, Qc, Canada). All animal protocols were in accordance with Canadian Counsel of Animal Care guidelines and were approved by the Animal Care and Use Committee of the Hospital for Sick Children. Developmental profile: At fetal day 19 and 22 (term=23 days) the pregnant rat was anesthetized and the pups delivered by cesarean section, while postpartum rodents were removed from their mother directly before sacrifice. Dexamethasone treatment: Newborn Wistar rats were injected daily for 4 days with dexamethasone (Sabex, Boucherville, Quebec, Canada) diluted in isotonic saline starting at postnatal day 1 according to previously described protocols (17). Hyperoxia exposure: The oxygen treatment was performed by housing the rat pups with their mother in chambers containing either 21% or 60% oxygen, starting at day 1 until day of lavage (i.e. postnatal day 4, 7, 10 or 14) (18).
After sacrificing the animals, a needle (blunted tip) was inserted through a tracheostomy and the lungs were lavaged with a buffer composed of phosphate-buffered saline augmented with 0.05 mg/ml of 70 kDa dextran-FITC [Molecular probes, Burlington, ON, Canada]. The inert fluorescent marker was included to determine lavage recovery (see FIG. 4e).
BALF samples were spiked with 1 μg of deuterated dipalmitoyl-PC (16:0/16:0PC) (Avanti polar lipids, Alabaster Ala., USA) as an internal standard, and then extracted (19). Lipids were analyzed using an API4000 mass spectrometer [MDS SCIEX, Concord, Ontario, Canada) (20).
To determine the nature of this relationship, BALF samples were examined from two rat models of diminished alveolarization. The two models employed were postnatal exposure to either dexamethasone or 60% oxygen. Postnatal administration of dexamethasone to rats has been described to result in a reduced alveolarization (17, 39-41). In the present study, a high dose, short-term treatment with dexamethasone was used to induce reduced alveolarization in the animal.
Neonatal hyperoxia of mice and rats may also be used to induce diminished alveolarization (18, 42-44).

Row | SMILES | average particle size of liposomes formed from BALF lipids (neonatal rats [1]) [microns] | parenchymal complexity / lung alveoli compared to controls (newborn Wistar rats) | liposome radius compared to palmitoylmyristoyl-PC (16:0/14:0PC) liposomes [2] | total PC in BALF (neonatal rats [3]; 60% oxygen from day 1, postnatal day 10) | total PC in BALF (neonatal rats [3]; 60% oxygen from day 1, postnatal day 14) | palmitoylmyristoyl-PC (16:0/14:0PC) in BALF (neonatal rats [3]; after 14 days of 60% oxygen exposure, only PC species reduced) | dipalmitoyl-PC (16:0/16:0PC) content in BALF (neonatal rats [3]; rats exposed to 60% oxygen) | palmitoylmyristoyl-PC (16:0/14:0PC) content in BALF (neonatal rats [3]; rats exposed to 60% oxygen) | palmitoylpalmitoleoyl-PC (16:0/16:1PC) content in BALF (neonatal rats [3]; rats exposed to 60% oxygen)
1 | C[C@@H]1C[C@H]2[C@@H]3CCC4=CC(=O)C=C[C@]4(C)[C@@]3(F)[C@@H](O)C[C@]2(C)[C@@]1(O)C(=O)CO [dexamethasone, reference compound] | 13.2±0.7 | significant decrease in parenchymal complexity | – | – | – | – | – | – | –
2 | CCCCCCCCCCCCCCCC(=O)OC[C@H](COP(=O)([O-])OCC[N+](C)(C)C)OC(=O)CCCCCCCCCCCCCCC [16:0/16:0, Dipalmitoyl Phosphatidylcholine] | – | – | three-fold greater radius | – | – | – | – | – | –
3 | O=O [60% oxygen, oxygen] | 12.6±0.6 | – | – | significant reduction | no longer significantly different | significantly reduced | reduced | reduced | reduced
